Measurements published in patent publication US11297838B2, “Pesticidal compositions and methods” (CORTEVA AGRISCIENCE LLC, priority 2018, dated 2022).

Assays:
[1] = system: Beet Armyworm (Spodoptera exigua, LAPHEG); experiment: Insecticidal test for beet armyworm (BAW), 128-well diet tray assay; type: in vivo; conditions: 168 h, 50 μg/cm^2 on artificial diet, second instar larvae, five to seven days, 25° C., read-out: BAW rating, % Control (or Mortality)
Protocol: Insecticidal Test for Beet Armyworm (Spodoptera exigua, LAPHEG) (“BAW”)
Bioassays on beet armyworm (BAW; Spodoptera exigua: Lepidoptera) are conducted using a 128-well diet tray assay. One to five second instar BAW larvae are placed in each well (3 mL) of the diet tray that had been previously filled with 1 mL of artificial diet to which 50 μg/cm^2 of the test compound (dissolved in 50 μL of 90:10 acetone-water mixture) had been applied (to each of eight wells) and then allowed to dry. Trays are covered with a clear self-adhesive cover, vented to allow gas exchange, and held at 25° C., 14:10 light-dark for five to seven days. Percent mortality is recorded for the larvae in each well; activity in the eight wells is then averaged. In the reporting of the results, the “BAW & CL Rating Table” was used.

[2] = system: Cabbage Looper (Trichloplusia ni, TRIPNI); experiment: Insecticidal test for cabbage looper (CL), 128-well diet tray assay; type: in vivo; conditions: Trichoplusia ni, 168 h; 50 μg/cm^2 on artificial diet, second instar larvae, five to seven days, 25° C.; read-out: CL rating, % Control (or Mortality)
Protocol: Insecticidal Test for Cabbage Looper (Trichloplusia ni, TRIPNI) (“CL”)
Bioassays on cabbage looper (CL; Trichloplusia ni: Lepidoptera) are conducted using a 128-well diet tray assay. One to five second instar CL larvae are placed in each well (3 mL) of the diet tray that had been previously filled with 1 mL of artificial diet to which 50 μg/cm^2 of the test compound (dissolved in 50 μL of 90:10 acetone-water mixture) had been applied (to each of eight wells) and then allowed to dry. Trays are covered with a clear self-adhesive cover, vented to allow gas exchange, and held at 25° C., 14:10 light-dark for five to seven days. Percent mortality is recorded for the larvae in each well; activity in the eight wells is then averaged. In the reporting of the results, the “BAW & CL Rating Table” was used.

Compound	mortality at 50 µg/cm2 [1]	mortality at 50 µg/cm2 [2]
COCc1ccccc1N1C(=O)CS/C1=N\C(=O)OCCc1ccc(-c2ncn(-c3ccc(OC(F)(F)F)cc3)n2)cc1 [A27, 4-(1-(4-(trifluoromethoxy)phenyl)-1H-1,2,4-triazol-3-yl)phenethyl (Z)-(3-(2-(methoxymethyl)phenyl)-4-oxothiazolidin-2-ylidene)carbamate]	50 to 100%	50 to 100%
CCC(C)c1ccc(OC)cc1N1C(=O)CS/C1=N\C(=O)OCCc1ccc(-c2ncn(-c3ccc(OC(F)(F)F)cc3)n2)cc1 (stereo not drawn) [A28, 4-(1-(4-(Trifluoromethoxy)phenyl)-1H-1,2,4-triazol-3-yl)phenethyl (Z)-(3-(2-(sec-butyl)-5-methoxyphenyl)-4-oxothiazolidin-2-ylidene)carbamate]	50 to 100%	50 to 100%
O=C(/N=C1\SCC(=O)N1c1cc(Cl)ccc1OC(F)(F)F)OCCc1ccc(-c2ncn(-c3ccc(OC(F)(F)F)cc3)n2)cc1 [A29, 4-(1-(4-(Trifluoromethoxy)phenyl)-1H-1,2,4-triazol-3-yl)phenethyl (Z)-(3-(5-chloro-2-(trifluoromethoxy)phenyl)-4-oxothiazolidin-2-ylidene)carbamate]	50 to 100%	50 to 100%
O=C(/N=C1\SCC(=O)N1c1cc(Cl)ccc1OCC(F)(F)F)OCCc1ccc(-c2ncn(-c3ccc(OC(F)(F)F)cc3)n2)cc1 [A30, 4-(1-(4-(Trifluoromethoxy)phenyl)-1H-1,2,4-triazol-3-yl)phenethyl (Z)-(3-(5-chloro-2-(2,2,2-trifluoroethoxy)phenyl)-4-oxothiazolidin-2-ylidene)carbamate]	50 to 100%	50 to 100%
Cc1ccc(OCC(F)(F)F)c(N2C(=O)CS/C2=N\C(=O)OCCc2ccc(-c3ncn(-c4ccc(OC(F)(F)F)cc4)n3)cc2)c1 [A31, 4-(1-(4-(Trifluoromethoxy)phenyl)-1H-1,2,4-triazol-3-yl)phenethyl (Z)-(3-(5-methyl-2-(2,2,2-trifluoroethoxy)phenyl)-4-oxothiazolidin-2-ylidene)carbamate]	50 to 100%	50 to 100%
CCc1cccc(C)c1N1C(=O)CS/C1=N\C(=O)OCCc1ccc(-c2ncn(-c3ccc(OC(F)(F)F)cc3)n2)cc1 [A32, 4-(1-(4-(Trifluoromethoxy)phenyl)-1H-1,2,4-triazol-3-yl)phenethyl (Z)-(3-(2-ethyl-6-methylphenyl)-4-oxothiazolidin-2-ylidene)carbamate]	0%	50 to 100%
O=C(/N=C1\SCC(=O)N1c1cccc2c1CCCC2)OCCc1ccc(-c2ncn(-c3ccc(OC(F)(F)F)cc3)n2)cc1 [A33, 4-(1-(4-(Trifluoromethoxy)phenyl)-1H-1,2,4-triazol-3-yl)phenethyl (Z)-(4-oxo-3-(5,6,7,8-tetrahydronaphthalen-1-yl)thiazolidin-2-ylidene)carbamate]	0%	50 to 100%
CC(C)c1ccccc1N1C(=O)CS/C1=N\C(=O)OCC(F)c1ccc(-c2ncn(-c3ccc(OC(F)(F)F)cc3)n2)cc1 (stereo not drawn) [A34, 2-Fluoro-2-(4-(1-(4-(trifluoromethoxy)phenyl)-1H-1,2,4-triazol-3-yl)phenyl)ethyl (Z)-(3-(2-isopropylphenyl)-4-oxothiazolidin-2-ylidene)carbamate]	50 to 100%	50 to 100%
CCC(C)Oc1ccc(C)cc1N1C(=O)CS/C1=N\C(=O)OCCc1ccc(-c2ncn(-c3ccc(OC(F)(F)F)cc3)n2)cc1 (stereo not drawn) [A35, 4-(1-(4-(Trifluoromethoxy)phenyl)-1H-1,2,4-triazol-3-yl)phenethyl (Z)-(3-(2-(sec-butoxy)-5-methylphenyl)-4-oxothiazolidin-2-ylidene)carbamate]	50 to 100%	50 to 100%
O=C(/N=C1\SCC(=O)N1c1cc(Cl)ccc1OC(F)(F)F)OCC(F)c1ccc(-c2ncn(-c3ccc(OC(F)(F)F)cc3)n2)cc1 (stereo not drawn) [A36, 2-Fluoro-2-(4-(1-(4-(trifluoromethoxy)phenyl)-1H-1,2,4-triazol-3-yl)phenyl)ethyl (Z)-(3-(5-chloro-2-(trifluoromethoxy)phenyl)-4-oxothiazolidin-2-ylidene)carbamate]	50 to 100%	50 to 100%
COc1ccc(N2C(=O)CS/C2=N\C(=O)OCC(F)c2ccc(-c3ncn(-c4ccc(OC(F)(F)F)cc4)n3)cc2)c(C)c1 (stereo not drawn) [A37, 2-Fluoro-2-(4-(1-(4-(trifluoromethoxy)phenyl)-1H-1,2,4-triazol-3-yl)phenyl)ethyl (Z)-(3-(4-methoxy-2-methylphenyl)-4-oxothiazolidin-2-ylidene)carbamate]	0%	50 to 100%
Cc1cc(Cl)c(N2C(=O)CS/C2=N\C(=O)OCC(F)c2ccc(-c3ncn(-c4ccc(OC(F)(F)F)cc4)n3)cc2)cc1C (stereo not drawn) [A38, 2-Fluoro-2-(4-(1-(4-(trifluoromethoxy)phenyl)-1H-1,2,4-triazol-3-yl)phenyl)ethyl (Z)-(3-(2-chloro-4,5-dimethylphenyl)-4-oxothiazolidin-2-ylidene)carbamate]	0%	50 to 100%
O=C(/N=C1\SCC(=O)N1c1cccc2c1CCCC2)OCC(F)c1ccc(-c2ncn(-c3ccc(OC(F)(F)F)cc3)n2)cc1 (stereo not drawn) [A39, 2-Fluoro-2-(4-(1-(4-(trifluoromethoxy)phenyl)-1H-1,2,4-triazol-3-yl)phenyl)ethyl (Z)-(4-oxo-3-(5,6,7,8-tetrahydronaphthalen-1-yl)thiazolidin-2-ylidene)carbamate]	50 to 100%	50 to 100%
CCOc1ccccc1N1C(=O)CS/C1=N\C(=O)OCC(F)c1ccc(-c2ncn(-c3ccc(OC(F)(F)F)cc3)n2)cc1 (stereo not drawn) [A40, 2-Fluoro-2-(4-(1-(4-(trifluoromethoxy)phenyl)-1H-1,2,4-triazol-3-yl)phenyl)ethyl (Z)-(3-(2-ethoxyphenyl)-4-oxothiazolidin-2-ylidene)carbamate]	50 to 100%	50 to 100%
CCC(C)Oc1ccc(C)cc1N1C(=O)CS/C1=N\C(=O)OCC(F)c1ccc(-c2ncn(-c3ccc(OC(F)(F)F)cc3)n2)cc1 (stereo not drawn) [A41, 2-Fluoro-2-(4-(1-(4-(trifluoromethoxy)phenyl)-1H-1,2,4-triazol-3-yl)phenyl)ethyl (Z)-(3-(2-(sec-butoxy)-5-methylphenyl)-4-oxothiazolidin-2-ylidene)carbamate]	50 to 100%	50 to 100%
CCc1cccc(C)c1N1C(=O)CS/C1=N\C(=O)OCC(F)c1ccc(-c2ncn(-c3ccc(OC(F)(F)F)cc3)n2)cc1 (stereo not drawn) [A42, 2-Fluoro-2-(4-(1-(4-(trifluoromethoxy)phenyl)-1H-1,2,4-triazol-3-yl)phenyl)ethyl (Z)-(3-(2-ethyl-6-methylphenyl)-4-oxothiazolidin-2-ylidene)carbamate]	0 to 50%	50 to 100%
CC(C)c1ccc(Cl)cc1N1C(=O)CS/C1=N\C(=O)OCCc1ccc(-c2ncn(-c3ccc(OC(F)(F)C(F)(F)F)cc3)n2)cc1 [A43, 4-(1-(4-(Perfluoroethoxy)phenyl)-1H-1,2,4-triazol-3-yl)phenethyl (Z)-(3-(5-chloro-2-isopropylphenyl)-4-oxothiazolidin-2-ylidene)carbamate]	50 to 100%	0%
Cc1ccc(C(C)C)c(N2C(=O)CS/C2=N\C(=O)OCCc2ccc(-c3ncn(-c4ccc(OC(F)(F)C(F)(F)F)cc4)n3)cc2)c1 [A44, 4-(1-(4-(Perfluoroethoxy)phenyl)-1H-1,2,4-triazol-3-yl)phenethyl (Z)-(3-(2-isopropyl-5-methylphenyl)-4-oxothiazolidin-2-ylidene)carbamate]	50 to 100%	50 to 100%
CC(C)c1ccccc1N1C(=O)CS/C1=N\C(=O)OCCc1ccc(-c2ncn(-c3ccc(OC(F)(F)C(F)(F)F)cc3)n2)cc1 [A45, 4-(1-(4-(Perfluoroethoxy)phenyl)-1H-1,2,4-triazol-3-yl)phenethyl (Z)-(3-(2-isopropylphenyl)-4-oxothiazolidin-2-ylidene)carbamate]	50 to 100%	50 to 100%
Cc1ccc(C(C)C)c(N2C(=O)CS/C2=N\C(=O)OCC(Cl)c2ccc(-c3ncn(-c4ccc(OC(F)(F)F)cc4)n3)cc2)c1 (stereo not drawn) [A46, 2-Chloro-2-(4-(1-(4-(trifluoromethoxy)phenyl)-1H-1,2,4-triazol-3-yl)phenyl)ethyl (Z)-(3-(2-isopropyl-5-methylphenyl)-4-oxothiazolidin-2-ylidene)carbamate]	50 to 100%	50 to 100%
CC(C)c1ccccc1N1C(=O)CS/C1=N\C(=O)OCC(Cl)c1ccc(-c2ncn(-c3ccc(OC(F)(F)F)cc3)n2)cc1 (stereo not drawn) [A47, 2-Chloro-2-(4-(1-(4-(trifluoromethoxy)phenyl)-1H-1,2,4-triazol-3-yl)phenyl)ethyl (Z)-(3-(2-isopropylphenyl)-4-oxothiazolidin-2-ylidene)carbamate]	50 to 100%	50 to 100%
